Experimental data reported in patent US4444691A, “11-Cyano-prostaglandins of the F-series” (American Cyanamid Company, priority 1982, dated 1984).
Read-outs that look alike come from different tables or passages of the source.

Key:
[1] = system: bronchospasms elicited by acetylcholine; assay: Bronchodilator activity (Konzett assay), acetylcholine bronchospasm; type: in vivo, guinea pigs; details: Cavia porcellus; spasmogenic agent acetylcholine; three logarithmic cumulative intravenous doses
Experimental: (§1) Bronchodilator activity was determined in guinea pigs against bronchospasms elicited by intravenous injections of 5-hydroxytryptamine, histamine or acetylchlorine by the Konzett procedure. (See J. Lulling, P. Licvens, F. El Sayed and J. Prignot, Arzneinittel-Forschung, 18, 995 (1968).]
(§2) In the Table which follows bronchodilator activity for representative compounds of this invention against one or more of the three spasmogenic agents is expressed as an ED50 determined from the results obtained with three logarithmic cumulative intravenous doses.

[2] = system: ulcerogenic effects induced by indomethacin (stomach ulcers); type: in vivo, rat; details: indomethacin 20 mg/kg s.c., score 0-4
Experimental: It is further to be noted that although prostaglandins in general are not effective when administered by oral route, the compounds of this invention are effective orally. The assay to determine the protective effect of these compounds is carried out in the following manner.
Rats were starved for 48 hours (water was given ad libitum). Indomethacin (20 mg./kg. of body weight) was administered by the subcutaneous route and one-half the dose of the test compound was administered by gavage at the same time. After three hours, the second half of the test compound was administered, also by gavage. Five hours after the administration of indomethacin the animals were decapitated and the stomachs removed. The stomachs were washed with distilled water, blotted on gauze, cut along the larger curvature, and the contents rinsed with distilled water. The stomachs were spread out, pinned on a cork and visualized under magnifying glass for ulcers. The criteria for scoring of ulcers was as previously reported. [Abdel-Galil et al. Brit. J. Pharmac. Chemotherapy 33:1-14 (1968)]. […]
1 Petechial hemorrhage of pin point ulcers
3 Many ulcers, a few large
4 Many ulcers, mainly large
Control animals treated with indomethacin but not test compound consistently give scores of about 2.5-3.5. Control animals treated with neither indomethacin not test compound give scores of about 0.5-0.8. Compounds diminishing the control ulcer score by 0.5 unit or more are considered to be active.

[3] = system: gastric acid secretion; assay: Gastric acid secretion inhibition, modified Shay rat procedure; type: in vivo, rats (male, CFE strain); details: intraduodenal
From the text: The novel compounds of the present invention are effective inhibitors of gastric acid secretion and of ulcer development in experimental animals, and thus are potentially valuable as agents for the control of gastric secretion and of gastric erosion and as anti-ulcer agents. Gastric acid secretion inhibitory action is usually measured by the "Shay rat" procedure ^(1,2) with some modifications as follows.
(1) Shay et al., Gastroenterology, 5, 43 (1945).
The rats (male, CFE strain) were starved for 48 hours (water was given ad libitum) to permit evacuation of stomach contents. On the morning of the experiment, under ether anesthesia, the abdominal region was shaved and a midline incision (1-11/2" ) was made with a scapel. With the help of a closed curved hemostat the duodenum was picked up. Upon getting the duodenum into view, fingers were used to pull the stomach through the opening, the stomach was then gently manipulated with fingers to rid stomach of air and residual matter which were pushed through the pylorus. Two-5 inch sutures were drawn under the pyloric-duodenal puncture. A ligature at the juncture, was formed with one of the threads. The second ligature was also formed but not tightened.
The test compound or the vehicle, usually 1 ml./100 g. body weight, were injected into the duodenum as close as possible to the first ligature. After injection the second ligature was tightened below the injection site to minimize leakage. The stomach was placed back through the opening into the abdominal cavity, the area of incision was washed with saline and the incision was closed with autoclips. (Occasionally, instead of an intraduodenal injection, animals were dosed by the oral or subcutaneous route. In the latter case, dosing was done thirty to sixty minutes before the operation.)
The abdominal cavity was exposed by cutting with scissors and the esophagus close to the stomach was clamped off with a hemostat, the stomach was removed by cutting above the hemostat (the esophagus was cut) and between the two sutures. Extraneous tissue was removed, the stomach washed with saline and blotted on gauze. A slit was carefully made in the stomach which was held over a funnel and the contents were collected in a centrifuge tube. The stomach was further cut along the outside edge and turned inside out. Two ml. H2 O were used to wash the stomach contents into the respective centrifuge tube. The combined stomach contents and wash were then centrifuged out for 10 minutes in the International Size 2 Centrifuge (setting at 30). The supernatant was collected, volume measured and recorded, 2 drops of a phenylphthalein indicator (1% in 95% ethanol) were added and the solution was titrated with 0.02 N NaOH (or with 0.04 N NaOH when large volumes of stomach contents were encountered) to pH 8.4 (because of usual coloring of the stomach contents, phenolphthalein was only used to permit visual indication that the end point was near) and the amount of acid present was calculated.
Compounds inducing inhibition of gastric acid secretion of 20% or more were considered active. In a representative operation, and merely by way of illustration, the results obtained with this assay with typical compounds of the present invention are given in Table II below.

[4] = system: bronchospasms elicited by histamine; assay: Bronchodilator activity (Konzett assay), histamine bronchospasm; type: in vivo, guinea pigs; details: spasmogenic agent histamine, three logarithmic cumulative intravenous doses; for ED50: Cavia porcellus, iv
Experimental: as §1, §2

[5] = system: basal gastric acid secretion; assay: Inhibition of total acid output (basal gastric acid secretion) in the acute gastric fistula rat; type: in vivo, female Sprague-Dawley rats; details: intraduodenal, 10 mg/kg; for inhibition in vivo at 10 mg/kg: Rattus norvegicus
Experimental: Inhibition of basal gastric acid secretion can be determined by the following procedure.
Female Sprague-Dawley rats weighing 140-160 grams are fasted in individual cages for 18-24 hours. The rats are then lightly anesthetized with ether and their front teeth extracted to avoid destruction of the plastic cannula. A midline incision is then made and the stomach and duodenum exposed. A flanged polyvinyl tube is inserted into the fundic portion of the stomach and secured with a purse string suture line using 4-O Mersilene. The rat is then dosed by injection of the compound into the duodenum (1.0 ml. per 100 gram body weight). After dosing, the abdominal wall and skin are closed using metal wound clips. The rat is replaced in a cage containing a longitudinal slit to allow the polyvinyl tube to hang freely. An 8 ml. plastic collecting tube is attached to the flanged cannula and hangs freely below the cage. The first 30 minute sample is discarded designating this time as zero. The collecting tube is attached again and samples removed at the end of 60 and 120 minutes. These samples are referred to as "A" and "B" in the table. The hourly samples are then transferred to a 15 ml. centrifuge and centrifuged for 5-10 minutes. Total and sediment volume are then recorded with the supernatent volume being used as volume of secretion. A 1 ml. or less aliquot is then removed and placed in a 50 ml. beaker containing 10 ml. of distilled water. This sample is then titrated using 0.01 N NaPH to pH 7.0 using a Beckman zeromatic pH meter. Volume, titratable acidity (mew/L) and total acid output (ueq/hour) are recorded. Percent inhibition is determined by comparison with the appropriate control. Groups of three rats were used for preliminary testing, and groups of six rats were used for dose-response evaluations. All compounds are administered in a vehicle consisting of 0.5% methocel, 0.4% tween 80, and saline at a constant volume of 1 ml./100 gram rat. Samples are dispersed by sonification. Percent inhibition is calculated on basis of concurrent vehicle control.
In Table III which follows is given the effect on total acid output after 60 minutes and 120 minutes of intraduodenal dose, of representative compounds of this invention.

[6] = system: bronchospasms elicited by 5-hydroxytryptamine; assay: Bronchodilator activity (Konzett assay), 5-hydroxytryptamine bronchospasm; type: in vivo, guinea pigs; details: spasmogenic agent 5-hydroxytryptamine, three logarithmic cumulative intravenous doses; for ED50: Cavia porcellus
Experimental: as §1, §2

[7] = total oral dose 12.5 mg/kg, controls 2.5-3.0
[8] = Rattus norvegicus, 50 mg/kg, read-out: Percent inhibition of gastric acid secretion
[9] = total oral dose 25 mg/kg, controls 2.7-3.9
[10] = 1 h, 60 min, read-out: % Inhibition of total acid output, after 60 minutes (A)
[11] = 2 h, 120 min, read-out: % Inhibition of total acid output, after 120 minutes (B)

Row | Structure (SMILES) | ED50 [1] [mg/kg] | inhibition in vivo at 50 mg/kg [3, 8] [%] | ED50 [4] [mg/kg] | ED50 [6] [mg/kg] | other results
1 | CCCCC[C@H](O)CC[C@H]1[C@H](C)CC(=O)[C@@H]1CCCCCCC(=O)O [11-deoxy-11α-methyl-13,14-dihydroprostaglandin E1] | 0.773 | 45 | – | – | Ulcer score, treated animals [2, 7]: 2.3; Ulcer score, treated animals ([2]; total oral dose 50 mg/kg, controls 2.5-3.2): 1.7
2 | CCCCC[C@H](O)/C=C/[C@H]1[C@H](C[N+](=O)[O-])CC(=O)[C@@H]1C/C=C\CCCC(=O)O [11-deoxy-11α-nitromethyl prostaglandin E2] | 1.7 | – | 1.4 | – | Ulcer score, treated animals ([2]; total oral dose 100 mg/kg, controls 3.2): 1.0; inhibition in vivo at 100 mg/kg ([3]; Rattus norvegicus, 100 mg/kg, read-out: Percent inhibition of gastric acid secretion): 74%
3 | CCCCC[C@H](O)/C=C/[C@H]1[C@H](C(N)=O)CC(=O)[C@@H]1C/C=C\CCCC(=O)O [11α-carboxamido-11-deoxyprostaglandin E2] | – | – | – | – | % Inhibition of total acid output, after 60 minutes (A) ([5]; 60 min): 27%; % Inhibition of total acid output, after 120 minutes (B) ([5]; 120 min): 35%; ED50, bronchodilator activity [6]: 1.7 mg/kg; Percent inhibition of gastric acid secretion ([3]; 50 mg/kg): 27%; ED50, bronchodilator activity [4]: 0.53 mg/kg
4 | CCCCC[C@H](O)/C=C/[C@@H]1[C@@H](C/C=C\CCCC(=O)O)[C@@H](O)C[C@H]1SC [11α-methylthio-11-deoxyprostaglandin F2α] | – | 61 | 1.6 | 2.63 | Ulcer score, treated animals [2, 7]: 1.2
5 | CCCCCC(C)/C=C/[C@H]1[C@H](C)CC(=O)[C@@H]1C/C=C\CCCC(=O)O (stereo partly drawn) [l-11α,15-dimethyl-11,15-bisdeoxyprostaglandin-E2] | – | 60 | – | 18.1 | –
6 | CCCCC[C@H](O)/C=C/[C@@H]1[C@@H](C/C=C\CCCC(=O)O)[C@@H](O)C[C@H]1C#N [l-11α-cyano-11-deoxyprostaglandin-F2 α, 11α-cyano-11-deoxyprostaglandin F2 α] | 0.051 | 43 | – | 0.03 | Ulcer score, treated animals [2, 9]: 1.3
7 | CC/C=C\CC(O)/C=C/C1C(C/C=C\CCCC(=O)O)C(=O)CC1C(C(=O)O)C(=O)O (stereo not drawn) [l-11α-dicarboxymethyl-11-deoxyprostaglandin-E3] | – | – | – | – | ED50, bronchodilator activity [6]: 3.3 mg/kg
8 | CCCCC[C@H](O)/C=C/[C@H]1[C@H](CC)CC(=O)[C@@H]1C/C=C\CCCC(=O)O [l-11α-ethyl-11-deoxyprostaglandin-E2, 11-deoxy-11α-ethyl-prostaglandin E2] | 3.9 | – | 1.24 | – | inhibition in vivo at 10 mg/kg [5, 10]: 57%; inhibition in vivo at 10 mg/kg [5, 11]: 66%; Ulcer score, treated animals [2, 9]: 2.2
9 | CCCCC[C@H](O)/C=C/[C@@H]1[C@@H](C/C=C\CCCC(=O)O)C(=O)C[C@H]1C(C)C [l-11α-isopropyl-11-deoxyprostaglandin-E2, 11-deoxy-11α-isopropyl-prostaglandin E2] | – | 42 | – | 8.95 | –
10 | CCCCC[C@H](O)/C=C/[C@@H]1[C@@H](C/C=C\CCCC(=O)O)[C@@H](O)C[C@H]1C [l-11α-methyl-11-deoxyprostaglandin-F2 α, 11-deoxy-11α-methyl-prostaglandin F2α] | – | 70 | 0.013 | 0.038 | Ulcer score, treated animals [2, 9]: 1.8
11 | CCCCC[C@H](O)/C=C/[C@@H]1[C@@H](C/C=C\CCCC(=O)O)C(=O)C[C@H]1c1ccccc1 [l-11α-phenyl-11-deoxyprostaglandin-E2, l-11-deoxy-11α-phenylprostaglandin-E2] | – | 58 | – | 0.46 | –
12 | C=C[C@@H]1CC(=O)[C@H](C/C=C\CCCC(=O)O)[C@H]1/C=C/[C@@H](O)CCCCC [l-11α-vinyl-11-deoxyprostaglandin-E2, 11-deoxy-11α-vinyl-prostaglandin E2] | – | 59 | 1.3 | 1.2 | –
13 | CCCCC[C@H](O)/C=C/[C@H]1[C@@H](C#N)CC(=O)[C@@H]1C/C=C\CCCC(=O)O [l-11β-cyano-11-deoxyprostaglandin-E2, l-11-deoxy-11β-cyanoprostaglandin-E2] | – | – | 54.9 | 3.1 | inhibition in vivo at 10 mg/kg [5, 10]: 26%; inhibition in vivo at 10 mg/kg [5, 11]: 43%
